Values of other authors as cited in US11053230B2, “3-hydroxy-imidazolidin-4-one compounds as inhibitors of indoleamine 2,3-dioxygenase” (Netherlands Translational Research Center B.V., priority 2017, dated 2021).

Key:
[1] = system: IDO1 expressed in mouse tumor cells; details: pre-immunized mice; cited from earlier work
lung carcinoma = details: syngeneic mouse lung carcinoma model and transgenic mouse model; cited from earlier work
[2] = system: melanoma and glioblastoma; details: mouse tumor models for melanoma and glioblastoma; cited from earlier work
influenza virus = details: influenza virus-infected mice; cited from earlier work
Leishmania major = details: in vivo; cited from earlier work

In the case of Cn1cc(C[C@H](N)C(=O)O)c2ccccc21 [Example 1-MT, 1-methyl-L-tryptophan], the “reversal of IDO1-mediated prevention of tumor cell rejection” value [1] is listed as “this effect could be reverted”, the “efficacy of a cancer vaccine in combination” value (lung carcinoma) is listed as “increased the efficacy of a cancer vaccine” and the “efficacy of PD-1 and CTLA4 antibodies in combination” value [2] is listed as “increased the efficacy of antibodies”. For the same compound, the “T cell response against the virus” value (influenza virus) was “enhanced T cell response against the virus” and the parasite burden (Leishmania major) was “reduced the parasite burden”.
